Converted amounts (≈) assume the structure as drawn. Read-outs that look alike come from different tables or passages of the source.
Assays:
Test in all cases: MIC on clinically isolated bacteria
Format in all cases: cell-based
[1] = system: Acinetobacter baumannii C390; conditions: Acinetobacter baumannii C390; read-out: Minimum Inhibitory Concentration (MIC)
Description: (§1) Twenty-five strains of clinically isolated Acinetobacter baumannii and twenty-seven strains of Pseudomonas aeruginosa were respectively selected and used to determine the minimum inhibitory concentration (MIC) of the compounds by micro-liquid dilution method according to the Institute of Clinical and Laboratory Standard (CLSI) requirements.

[2] = system: Acinetobacter baumannii C402; conditions: Acinetobacter baumannii C402; read-out: Minimum Inhibitory Concentration (MIC)
Description: as §1

[3] = system: Acinetobacter baumannii C427; conditions: Acinetobacter baumannii C427; read-out: Minimum Inhibitory Concentration (MIC)
Description: as §1

[4] = system: Acinetobacter baumannii C333; conditions: Acinetobacter baumannii C333; read-out: Minimum Inhibitory Concentration (MIC)
Description: as §1

[5] = system: Pseudomonas aeruginosa W47; conditions: read-out: MIC
Description: as §1

[6] = system: Pseudomonas aeruginosa W4; conditions: read-out: MIC
Description: as §1

[7] = system: Pseudomonas aeruginosa W23; conditions: read-out: MIC
Description: as §1

[8] = system: Acinetobacter baumannii C332; conditions: Acinetobacter baumannii C332; read-out: Minimum Inhibitory Concentration (MIC)
Description: as §1

[9] = system: Acinetobacter baumannii C313; conditions: Acinetobacter baumannii C313; read-out: Minimum Inhibitory Concentration (MIC)
Description: as §1

[10] = system: Acinetobacter baumannii C395; conditions: Acinetobacter baumannii C395; read-out: Minimum Inhibitory Concentration (MIC)
Description: as §1

[11] = system: Pseudomonas aeruginosa W32; conditions: read-out: MIC
Description: as §1

[12] = system: Pseudomonas aeruginosa M4; conditions: read-out: MIC
Description: as §1

[13] = system: Pseudomonas aeruginosa C761; conditions: read-out: MIC
Description: as §1

[14] = system: Acinetobacter baumannii C328; conditions: Acinetobacter baumannii C328; read-out: Minimum Inhibitory Concentration (MIC)
Description: as §1

[15] = system: Pseudomonas aeruginosa C762
Description: as §1

[16] = system: Pseudomonas aeruginosa W29; conditions: read-out: MIC
Description: as §1

[17] = system: Pseudomonas aeruginosa C755; conditions: read-out: MIC
Description: as §1

[18] = system: Acinetobacter baumannii C279; conditions: Acinetobacter baumannii C279; read-out: Minimum Inhibitory Concentration (MIC)
Description: as §1

[19] = system: Pseudomonas aeruginosa C754; conditions: read-out: MIC
Description: as §1

[20] = system: Pseudomonas aeruginosa M1; conditions: read-out: MIC
Description: as §1

[21] = system: Pseudomonas aeruginosa W21; conditions: read-out: MIC
Description: as §1

[22] = system: Acinetobacter baumannii C401; conditions: Acinetobacter baumannii C401; read-out: Minimum Inhibitory Concentration (MIC)
Description: as §1

[23] = system: Pseudomonas aeruginosa W9; conditions: read-out: MIC
Description: as §1

[24] = system: Acinetobacter baumannii C315; conditions: Acinetobacter baumannii C315; read-out: Minimum Inhibitory Concentration (MIC)
Description: as §1

[25] = system: Pseudomonas aeruginosa C745; conditions: read-out: MIC
Description: as §1

[26] = system: Pseudomonas aeruginosa W20; conditions: read-out: MIC
Description: as §1

[27] = system: Pseudomonas aeruginosa W27; conditions: read-out: MIC
Description: as §1

[28] = system: Acinetobacter baumannii C357; conditions: Acinetobacter baumannii C357; read-out: Minimum Inhibitory Concentration (MIC)
Description: as §1

[29] = system: Pseudomonas aeruginosa W13; conditions: read-out: MIC
Description: as §1

[30] = system: Pseudomonas aeruginosa W19; conditions: read-out: MIC
Description: as §1

Aeruginosa ATCC27853 = conditions: Pseudomonas aeruginosa; Aeruginosa ATCC27853; read-out: MIC
Description: as §1

[31] = system: Acinetobacter baumannii C241; conditions: Acinetobacter baumannii C241; read-out: Minimum Inhibitory Concentration (MIC)
Description: as §1

[32] = system: Pseudomonas aeruginosa W35; conditions: read-out: MIC
Description: as §1

[33] = system: Acinetobacter baumannii C394; conditions: Acinetobacter baumannii C394; read-out: Minimum Inhibitory Concentration (MIC)
Description: as §1

[34] = system: Pseudomonas aeruginosa W42; conditions: read-out: MIC
Description: as §1

[35] = system: Acinetobacter baumannii C251; conditions: Acinetobacter baumannii C251; read-out: Minimum Inhibitory Concentration (MIC)
Description: as §1

[36] = system: Pseudomonas aeruginosa W46; conditions: read-out: MIC
Description: as §1

[37] = system: Acinetobacter baumannii C283; conditions: Acinetobacter baumannii C283; read-out: Minimum Inhibitory Concentration (MIC)
Description: as §1

[38] = system: Pseudomonas aeruginosa W24; conditions: read-out: MIC
Description: as §1

[39] = system: Acinetobacter baumannii C330; conditions: Acinetobacter baumannii C330; read-out: Minimum Inhibitory Concentration (MIC)
Description: as §1

[40] = system: Pseudomonas aeruginosa W28; conditions: read-out: MIC
Description: as §1

C[C@H]1[C@H](NC(=O)/C(=N\OC(C)(C)C(=O)O)c2csc(N)n2)C(=O)N1S(=O)(=O)O [Aztreonam, reference compound]
MIC [1]: 64 µg/mL (≈ 147 µM) | MIC [2]: 32 µg/mL (≈ 73.5 µM) | MIC [3]: 64 µg/mL (≈ 147 µM) | MIC [4]: 64 µg/mL (≈ 147 µM) | MIC [5]: 16 µg/mL (≈ 36.7 µM) | MIC [6]: 4 µg/mL (≈ 9.19 µM) | MIC [7]: 16 µg/mL (≈ 36.7 µM) | MIC [8]: 64 µg/mL (≈ 147 µM) | MIC [9]: 64 µg/mL (≈ 147 µM) | MIC [10]: 32 µg/mL (≈ 73.5 µM) | MIC [11]: 32 µg/mL (≈ 73.5 µM) | MIC [12]: < 0.25 µg/mL | MIC [13]: 8 µg/mL (≈ 18.4 µM) | MIC [14]: 64 µg/mL (≈ 147 µM) | MIC [15]: 128 µg/mL (≈ 294 µM) | MIC [16]: 32 µg/mL (≈ 73.5 µM) | MIC [17]: 4 µg/mL (≈ 9.19 µM) | MIC [18]: 64 µg/mL (≈ 147 µM) | MIC [19]: 4 µg/mL (≈ 9.19 µM) | MIC [20]: 8 µg/mL (≈ 18.4 µM) | MIC [21]: 16 µg/mL (≈ 36.7 µM) | MIC [22]: 32 µg/mL (≈ 73.5 µM) | MIC [23]: 32 µg/mL (≈ 73.5 µM) | MIC [24]: 64 µg/mL (≈ 147 µM) | MIC [25]: 32 µg/mL (≈ 73.5 µM) | MIC [26]: 32 µg/mL (≈ 73.5 µM) | MIC [27]: 32 µg/mL (≈ 73.5 µM) | MIC [28]: 32 µg/mL (≈ 73.5 µM) | MIC [29]: 16 µg/mL (≈ 36.7 µM) | MIC [30]: 16 µg/mL (≈ 36.7 µM) | MIC (Aeruginosa ATCC27853): 2 µg/mL (≈ 4.59 µM) | MIC [31]: 128 µg/mL (≈ 294 µM) | MIC [32]: 2 µg/mL (≈ 4.59 µM) | MIC [33]: 64 µg/mL (≈ 147 µM) | MIC [34]: 16 µg/mL (≈ 36.7 µM) | MIC [35]: 32 µg/mL (≈ 73.5 µM) | MIC [36]: 16 µg/mL (≈ 36.7 µM) | MIC [37]: 64 µg/mL (≈ 147 µM) | MIC [38]: 32 µg/mL (≈ 73.5 µM) | MIC [39]: 64 µg/mL (≈ 147 µM) | MIC [40]: 32 µg/mL (≈ 73.5 µM)

CC1(C)[C@H](NC(=O)/C(=N\O[C@@H](COc2ccc3c(c2)CN(C(=N)NCCCCN)C3)C(=O)O)c2csc(N)n2)C(=O)N1OS(=O)(=O)O [Compound 36]
MIC [1]: 2 µg/mL (≈ 2.87 µM) | MIC [2]: 2 µg/mL (≈ 2.87 µM) | MIC [3]: 2 µg/mL (≈ 2.87 µM) | MIC [4]: 2 µg/mL (≈ 2.87 µM) | MIC [5]: 0.5 µg/mL (≈ 0.717 µM) | MIC [6]: 1 µg/mL (≈ 1.43 µM) | MIC [7]: 0.25 µg/mL (≈ 0.358 µM) | MIC [8]: 2 µg/mL (≈ 2.87 µM) | MIC [9]: 2 µg/mL (≈ 2.87 µM) | MIC [10]: 2 µg/mL (≈ 2.87 µM) | MIC [11]: 1 µg/mL (≈ 1.43 µM) | MIC [12]: 1 µg/mL (≈ 1.43 µM) | MIC [13]: 0.25 µg/mL (≈ 0.358 µM) | MIC [14]: 2 µg/mL (≈ 2.87 µM) | MIC ([15]; read-out: MIC): 8 µg/mL (≈ 11.5 µM) | MIC [16]: 0.5 µg/mL (≈ 0.717 µM) | MIC [17]: 0.25 µg/mL (≈ 0.358 µM) | MIC [18]: 2 µg/mL (≈ 2.87 µM) | MIC [19]: 0.25 µg/mL (≈ 0.358 µM) | MIC [20]: 0.5 µg/mL (≈ 0.717 µM) | MIC [21]: 0.25 µg/mL (≈ 0.358 µM) | MIC [22]: 1 µg/mL (≈ 1.43 µM) | MIC [23]: 0.5 µg/mL (≈ 0.717 µM) | MIC [24]: 2 µg/mL (≈ 2.87 µM) | MIC [25]: 8 µg/mL (≈ 11.5 µM) | MIC [26]: 0.5 µg/mL (≈ 0.717 µM) | MIC [27]: 0.5 µg/mL (≈ 0.717 µM) | MIC [28]: 2 µg/mL (≈ 2.87 µM) | MIC [29]: 0.25 µg/mL (≈ 0.358 µM) | MIC [30]: 0.25 µg/mL (≈ 0.358 µM) | MIC (Aeruginosa ATCC27853): 0.25 µg/mL (≈ 0.358 µM) | MIC [31]: 2 µg/mL (≈ 2.87 µM) | MIC [32]: 0.125 µg/mL (≈ 0.179 µM) | MIC [33]: 2 µg/mL (≈ 2.87 µM) | MIC [34]: 0.25 µg/mL (≈ 0.358 µM) | MIC [35]: 16 µg/mL (≈ 22.9 µM) | MIC [36]: 0.25 µg/mL (≈ 0.358 µM) | MIC [37]: 2 µg/mL (≈ 2.87 µM) | MIC [38]: 0.5 µg/mL (≈ 0.717 µM) | MIC [39]: 2 µg/mL (≈ 2.87 µM) | MIC [40]: 4 µg/mL (≈ 5.73 µM)

C[C@@H](O)[C@H]1C(=O)N2C(C(=O)O)=C(S[C@@H]3CN[C@H](C(=O)N(C)C)C3)[C@H](C)[C@H]12 [Meropenem, reference compound]
MIC [1]: 64 µg/mL (≈ 167 µM) | MIC [2]: 64 µg/mL (≈ 167 µM) | MIC [3]: 64 µg/mL (≈ 167 µM) | MIC [4]: 64 µg/mL (≈ 167 µM) | MIC [5]: 4 µg/mL (≈ 10.4 µM) | MIC [6]: 2 µg/mL (≈ 5.22 µM) | MIC [7]: 16 µg/mL (≈ 41.7 µM) | MIC [8]: 64 µg/mL (≈ 167 µM) | MIC [9]: 64 µg/mL (≈ 167 µM) | MIC [11]: 4 µg/mL (≈ 10.4 µM) | MIC [12]: 0.5 µg/mL (≈ 1.3 µM) | MIC [13]: < 0.25 µg/mL | MIC ([15]; read-out: MIC): 32 µg/mL (≈ 83.4 µM) | MIC [16]: 4 µg/mL (≈ 10.4 µM) | MIC [17]: < 0.25 µg/mL | MIC [18]: 64 µg/mL (≈ 167 µM) | MIC [19]: < 0.25 µg/mL | MIC [20]: 4 µg/mL (≈ 10.4 µM) | MIC [21]: 16 µg/mL (≈ 41.7 µM) | MIC [22]: 128 µg/mL (≈ 334 µM) | MIC [23]: 16 µg/mL (≈ 41.7 µM) | MIC [24]: 64 µg/mL (≈ 167 µM) | MIC [25]: 32 µg/mL (≈ 83.4 µM) | MIC [26]: 8 µg/mL (≈ 20.9 µM) | MIC [27]: 32 µg/mL (≈ 83.4 µM) | MIC [28]: 64 µg/mL (≈ 167 µM) | MIC [29]: 16 µg/mL (≈ 41.7 µM) | MIC [30]: 1 µg/mL (≈ 2.61 µM) | MIC (Aeruginosa ATCC27853): < 0.25 µg/mL | MIC [31]: 64 µg/mL (≈ 167 µM) | MIC [32]: 16 µg/mL (≈ 41.7 µM) | MIC [33]: 64 µg/mL (≈ 167 µM) | MIC [34]: 1 µg/mL (≈ 2.61 µM) | MIC [35]: 64 µg/mL (≈ 167 µM) | MIC [36]: 2 µg/mL (≈ 5.22 µM) | MIC [37]: 64 µg/mL (≈ 167 µM) | MIC [38]: 16 µg/mL (≈ 41.7 µM) | MIC [39]: 64 µg/mL (≈ 167 µM) | MIC [40]: 32 µg/mL (≈ 83.4 µM)

Source: patent publication US11459323B2, “Monocyclic β-lactam compound for treating bacterial infection” (MEDSHINE DISCOVERY INC., priority 2018, dated 2022)
